Results as given in ChEMBL document CHEMBL1123575, “In search of the digitalis replacement” (J Med Chem, 1987).
Values joined by “and” are separate entries in the source; they are usually repeats but may differ in a detail not shown here. Equal entries are not always repeated.

Experiments:
[1] = biological target: T1, Phosphodiesterase; PDE3 & PDE4 (Homo sapiens) (UniProt P27815+Q14432+Q08499+Q07343+Q13370+Q08493); assay: Inhibition of cAMP Phosphodiesterase enzyme.; assay type: protein assay
[2] = biological target: Beta-1 adrenergic receptor (Homo sapiens) (UniProt P08588)
Description: Positive inotropic effects by direct or indirect beta-1 adrenergic receptor activation.

[3] = biological target: Beta-1 adrenergic receptor (Homo sapiens) (UniProt P08588); assay: Compound was tested for its inotropic effect by activation of beta-1 adrenergic receptor directly or indirectly; activity values are 73,75
[4] = biological target: T1, Phosphodiesterase; PDE3 & PDE4 (Homo sapiens); assay: Compound was evaluated for its inotropic activity by the inhibition of cAMP Phosphodiesterase enzyme; assay type: protein assay
[5] = Compound was evaluated for its inotropic activity by its ability to increase Myofibrillar Ca++ sensitivity.; assay type: functional
[6] = biological target: Beta-1 adrenergic receptor (Homo sapiens) (UniProt P08588); assay: Compound was tested for its inotropic effect by activation of beta-1 adrenergic receptor directly or indirectly; activity values are 70,71

Chain of Beta-1 adrenergic receptor (Homo sapiens) (P08588 whole entry, looked up): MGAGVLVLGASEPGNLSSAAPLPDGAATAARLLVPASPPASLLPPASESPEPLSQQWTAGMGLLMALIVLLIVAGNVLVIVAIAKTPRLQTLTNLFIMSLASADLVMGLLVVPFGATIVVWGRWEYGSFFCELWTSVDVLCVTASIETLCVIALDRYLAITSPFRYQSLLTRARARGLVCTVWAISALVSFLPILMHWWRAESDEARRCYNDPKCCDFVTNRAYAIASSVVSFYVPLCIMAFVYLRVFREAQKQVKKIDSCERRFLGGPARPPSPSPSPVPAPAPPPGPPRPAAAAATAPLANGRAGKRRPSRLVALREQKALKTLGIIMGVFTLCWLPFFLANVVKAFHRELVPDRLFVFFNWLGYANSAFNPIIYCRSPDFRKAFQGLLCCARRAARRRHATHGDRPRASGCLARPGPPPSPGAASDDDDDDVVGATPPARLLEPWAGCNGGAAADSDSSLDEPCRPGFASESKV

| Compound | PDE inhibition [1] | Inotropic effect [2] | other results |
| --- | --- | --- | --- |
| C[C@H](CCc1ccc(O)cc1)NC[C@H](O)c1ccc(O)cc1 |  | 39 |  |
| C[C@@H]1C(=O)NC2=Nc3cccc(Cl)c3CN21 | 88 | 89 |  |
| CNCCc1ccc(OC(=O)C(C)C)c(OC(=O)C(C)C)c1 |  | 38 |  |
| CC(C)NC[C@H](O)COc1ccc(O)cc1 |  | 35 and 34 |  |
| OC(CNCCC1c2ccccc2Oc2ccccc21)COc1ccccc1 (stereo not given) |  | 45 and 44 |  |
| Oc1ccc(CCNCCCCCCNCCc2ccccc2)cc1O |  | 36 |  |
| CCc1[nH]c(=O)[nH]c1C(=O)c1ccncc1 | 68 |  | Inotropic effect [6]: 71 |
| CCNC(=O)OC1CCN(c2nncc3cc(OC)c(OC)cc23)CC1 | 86 | 86 |  |
| CC(CCc1ccc(O)cc1)NCCc1ccc(O)c(O)c1 (stereo not given) |  | 26 |  |
| CCCCNC(=O)NC1CCN(c2ncnc3cc(OC)c(OC)cc23)CC1 | 84 | 85 |  |

The next lines start with results.

| PDE inhibition [1] | Inotropic effect [2] | Compound | other results |
| --- | --- | --- | --- |
| 87 |  | COc1ccc(C(=O)N2CCN(c3ccc4c(c3)CCC(=O)N4)CC2)cc1OC |  |
| 76 |  | CC1CC(O)=NN=C1c1ccc(-n2ccnc2)cc1 (stereo not given) |  |
| 72 |  | CSc1ccc(C(=O)c2[nH]c(=O)[nH]c2C)cc1 | Inotropic effect [3]: 75 |
| 83 |  | O=C1CCC(c2ccc3c(c2)NC(=O)CC3)=NN1 |  |
|  | 66 | Cc1nc(=O)c(C#N)c(NCc2cccnc2)[nH]1 | PDE inhibition [4]: 64 and 65 |
|  | 57 | Nc1cc(-c2ccncc2)c[nH]c1=O | PDE inhibition [4]: 57 and 56 and 24 |
|  | 82 | COc1ccc(-c2nc3cc(C4=NNC(=O)CC4C)ccc3[nH]2)cc1 (stereo not given) | PDE inhibition [4]: 81 and 80 |
| 91 |  | COc1ccc2[nH]c(=O)nc(C)c2c1OC |  |
| 90 |  | CN(C(=O)CCCOc1ccc2c(c1)CN1CC(=O)NC1=N2)C1CCCCC1 |  |
| 67 | 67 | CCc1nc(O)ncc1-c1ccc(O)cc1 |  |
| 62 |  | Cc1nc(O)c(N)cc1-c1ccccc1 | Mechanistic reference [5]: 62 |
| 63 |  | CC(=O)Nc1ccc(-c2cnc(O)cn2)cc1 |  |
| 58 |  | Cc1[nH]c(=O)c(C#N)cc1-c1ccncc1 |  |
| 76 | 78 | O=C1CCC(c2ccc(-n3ccnc3)cc2)=NN1 |  |
